Publication PMC9267659, “Directed Evolution of Phi Class Glutathione Transferases Involved in Multiple-Herbicide Resistance of Grass Weeds and Crops” (International Journal of Molecular Sciences, 2022)
Positions count from the first letter of the chain named.

Experiments:
AmGSTF [1] = target: T1, AmGSTF (Alopecurus myosuroides, UniProt Q9ZS17); test: dose-response inhibition of GST activity; format: biochemical
T1 construct: gene GST2c; full length, synthetic gene, His-tagged (C-His vector), E. coli, Ni-IDA-Sepharose purified, homodimer
T1 sequence (Q9ZS17 1-219): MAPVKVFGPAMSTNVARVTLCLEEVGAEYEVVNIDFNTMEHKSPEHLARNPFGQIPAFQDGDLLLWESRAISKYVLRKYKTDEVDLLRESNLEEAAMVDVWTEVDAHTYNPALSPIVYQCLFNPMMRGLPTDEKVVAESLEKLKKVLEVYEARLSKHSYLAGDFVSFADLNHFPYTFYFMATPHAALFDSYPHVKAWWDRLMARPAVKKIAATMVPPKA
From the text: dose-response inhibition of GST activity on AmGSTF

TdGSTF [2] = target: T2, TdGSTF (Triticum turgidum, UniProt A0A9R0QM20); test: dose-response inhibition of GST activity; format: biochemical
T2 construct: gene TRITD_1Bv1G036980; full length, pEXP5-CT/TOPO template, His-tagged, E. coli, Ni-IDA-Sepharose purified, homodimer
T2 sequence (A0A9R0QM20 1-219): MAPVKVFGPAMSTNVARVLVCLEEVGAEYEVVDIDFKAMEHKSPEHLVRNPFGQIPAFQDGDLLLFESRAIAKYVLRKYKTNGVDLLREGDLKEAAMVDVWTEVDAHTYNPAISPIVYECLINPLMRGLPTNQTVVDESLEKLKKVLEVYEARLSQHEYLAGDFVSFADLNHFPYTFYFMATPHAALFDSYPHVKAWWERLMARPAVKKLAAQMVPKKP
From the text: dose-response inhibition of GST activity on TdGSTF

sh101 [3] = system: T3, sh101; test: dose-response inhibition of GST activity; format: biochemical, Alopecurus myosuroides
T3 construct: gene AmGSTF; DNA-shuffled GSTF, 11 mutations vs AmGSTF (named in text: S90G, E93K, Q119E, F122I, M125L, DEK132-134NQT)
From the text: dose-response inhibition of GST activity on sh101

LrGSTF [4] = target: T4, LrGSTF (Lolium rigidum, UniProt M5BPX4); test: dose-response inhibition of GST activity; format: biochemical
T4 construct: gene GST; full length, synthetic gene, His-tagged (C-His vector), E. coli, Ni-IDA-Sepharose purified, homodimer
T4 sequence (M5BPX4 1-219): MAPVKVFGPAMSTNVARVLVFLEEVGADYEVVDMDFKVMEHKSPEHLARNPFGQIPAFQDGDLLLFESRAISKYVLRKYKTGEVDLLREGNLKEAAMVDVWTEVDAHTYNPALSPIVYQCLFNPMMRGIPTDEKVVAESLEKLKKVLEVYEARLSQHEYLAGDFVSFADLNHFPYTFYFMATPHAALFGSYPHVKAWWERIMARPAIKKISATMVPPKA
From the text: dose-response inhibition of GST activity on LrGSTF

sh168 = system: T5, sh168; test: dose-response inhibition of GST activity; format: biochemical, Alopecurus myosuroides
T5 construct: gene AmGSTF; has K93; keeps F122, M125 and DEK132-134 of AmGSTF; C-His, E. coli, dimer
From the text: dose-response inhibition of GST activity on sh168

sh155 [5] = system: T6, sh155; test: dose-response inhibition of GST activity; format: biochemical, Alopecurus myosuroides
T6 construct: gene AmGSTF; DNA-shuffled GSTF, 17 mutations vs AmGSTF (named in text: S90G, E93K, Q119E, F122I, M125L, DEK132-134NQT)
From the text: dose-response inhibition of GST activity on sh155

HvGSTF [6] = target: T7, HvGSTF (Hordeum vulgare, UniProt Q8VWW3); test: dose-response inhibition of GST activity; format: biochemical
T7 construct: gene GST6; full length, pEXP5-CT/TOPO template, His-tagged, E. coli, Ni-IDA-Sepharose purified, homodimer
T7 sequence (Q8VWW3 1-219): T2 sequence (A0A9R0QM20 1-219) with N82D, G83E, D91N, I113L, E158K, R200S, V207I
From the text: dose-response inhibition of GST activity on HvGSTF

sh49 = system: T8, sh49; test: dose-response inhibition of GST activity; format: biochemical, Alopecurus myosuroides
T8 construct: gene AmGSTF; keeps F122, M125, E93 and DEK132-134 of AmGSTF; C-His, E. coli, dimer
From the text: dose-response inhibition of GST activity on sh49

LrGSTF [7] = target: T4, LrGSTF; test: steady-state kinetics, CDNB conjugation; format: biochemical; settings: read-out: S0.5 (mM) / CDNB; co-substrate GSH; 0.1 M sodium phosphate pH 6.5, 37 °C; positive cooperativity, nH 1.41
From the text: steady-state kinetics, CDNB conjugation on LrGSTF

TdGSTF [8] = target: T2, TdGSTF; test: steady-state kinetics, CDNB conjugation; format: biochemical; settings: read-out: S0.5 (mM) / CDNB; co-substrate GSH; 0.1 M sodium phosphate pH 6.5, 37 °C; positive cooperativity, nH 1.43
From the text: steady-state kinetics, CDNB conjugation on TdGSTF

HvGSTF [9] = target: T7, HvGSTF; test: steady-state kinetics, CDNB conjugation; format: biochemical; settings: read-out: S0.5 (mM) / CDNB; co-substrate GSH; 0.1 M sodium phosphate pH 6.5, 37 °C; positive cooperativity, nH 1.46
From the text: steady-state kinetics, CDNB conjugation on HvGSTF

sh155 [10] = system: T6, sh155; test: steady-state kinetics, CDNB conjugation; format: biochemical, Alopecurus myosuroides; settings: co-substrate GSH; 0.1 M sodium phosphate pH 6.5, 37 °C; nH 1.02; read-out: S0.5 (mM) / CDNB
From the text: steady-state kinetics, CDNB conjugation on sh155

sh101 [11] = system: T3, sh101; test: steady-state kinetics, CDNB conjugation; format: biochemical, Alopecurus myosuroides; settings: co-substrate GSH; 0.1 M sodium phosphate pH 6.5, 37 °C; nH 1.1; read-out: S0.5 (mM) / CDNB
From the text: steady-state kinetics, CDNB conjugation on sh101

AmGSTF [12] = target: T1, AmGSTF; test: steady-state kinetics, CDNB conjugation; format: biochemical; settings: read-out: S0.5 (mM) / CDNB; co-substrate GSH; 0.1 M sodium phosphate pH 6.5, 37 °C; positive cooperativity, nH 1.5
From the text: steady-state kinetics, CDNB conjugation on AmGSTF

| SMILES | IC50 (AmGSTF [1]) | IC50 (TdGSTF [2]) | IC50 (sh101 [3]) | IC50 (LrGSTF [4]) | IC50 (sh168) | IC50 (sh155 [5]) | IC50 (HvGSTF [6]) | IC50 (sh49) | Km (LrGSTF [7]) | Km (TdGSTF [8]) | Km (HvGSTF [9]) | Km (sh155 [10]) | Km (sh101 [11]) | Km (AmGSTF [12]) |
| --- | --- | --- | --- | --- | --- | --- | --- | --- | --- | --- | --- | --- | --- | --- |
| CCCCOCN(C(=O)CCl)c1c(CC)cccc1CC [butachlor] | 7.3 ± 0.4 µM | 9.9 ± 0.2 µM | 5.9 ± 0.4 µM | 7.1 ± 0.5 µM | 3.1 ± 0.08 µM | 3.4 ± 0.1 µM | 9.2 ± 0.6 µM | 2.6 ± 0.04 µM |  |  |  |  |  |  |
| O=[N+]([O-])c1ccc(Cl)c([N+](=O)[O-])c1 [CDNB] |  |  |  |  |  |  |  |  | 0.76 ± 0.04 mM | 0.51 ± 0.02 mM | 0.52 ± 0.01 mM | 0.77 ± 0.06 mM | 0.41 ± 0.02 mM | 0.65 ± 0.03 mM |
